Laboratory results published in patent US11015061B2, “Phthalocyanine-based compound and uses of same” (YAMAMOTO CHEMICALS, INC., priority 2017, dated 2021).

Assays:
Type in all cases: physicochemical
[1] = Visible light transmittance of chloroform solution; conditions: spectrum converted to transmittance 10% at near-infrared maximum absorption wavelength
Protocol: The visible light transmittance of the phthalocyanine-based compound of the present invention and the comparative example compounds was measured by the following measurement method.
Each of the phthalocyanine compounds ([…]) and approximately 90 mL of chloroform were put into a 100 mL volumetric flask, and the solution in the flask was irradiated with ultrasonic waves for 30 minutes and left to stand for 2 hours at room temperature. Then, chloroform was added thereto such that the meniscus of the solution matched up with the calibration mark on the volumetric flask, thereby preparing a 10 mg/L phthalocyanine solution. The prepared solution was put into a 1 cm×1 cm cell made of PYREX (registered trademark), and the absorption spectrum thereof was measured using a spectrophotometer (produced by Hitachi, Ltd.: Spectrophotometer U-3500).
The absorption spectrum measured as above was converted such that the absorbance became 1.0, that is, the transmittance became 10% at the maximum absorption wavelength in a near-infrared range, thereby obtaining a transmission spectrum. […] At 460 nm, the transmittance of the compound of the present invention was approximately the same as the transmittance of Comparative Examples 1 and 2.

[2] = Absorption spectrum of toluene solution (maximum absorption, gram absorption coefficient)
Protocol: A toluene solution of the compound obtained in this way had maximum absorption at 734.0 nm, and the gram absorption coefficient thereof was 1.21×10^5 mL/g·cm. The absorption spectrum chart thereof is illustrated in FIG. 1.

[3] = Solubility in organic solvent (cyclopentanone); conditions: about 10 wt % dispersion, room temperature, 0.2 μm filter; no residue = 10 wt % or more
Protocol: The solubility of the phthalocyanine compound with respect to cyclopentanone was measured by the following method.
Cyclopentanone was added to about 1 g of the phthalocyanine compound such that the total weight thereof became about 10 g, and the obtained solution was irradiated with ultrasonic waves for about 30 minutes and then stirred for 2 hours at room temperature, thereby preparing a dispersion liquid of about 10 wt %.
The dispersion liquid was filtered through a membrane filter (0.2 μm), the substance obtained by filtration was dried for 1 hour in a drier at 60° C., and then the weight of the substance obtained by filtration was measured.
The solubility of the phthalocyanine compound in a solvent is expressed by the following equation. Solubility (wt %)=(W0−W1)/W0
W0 represents the correct weight of the phthalocyanine not yet being treated, and W1 represents the weight of the substance obtained by filtration (dissolved phthalocyanine compound residue) having been dried.

## COCCCCCCCCc1ccc(CCCCCCCCOC)c2c1-c1nc-2nc2[n-]c(nc3nc(nc4[n-]c(n1)c1c(CCCCCCCCOC)ccc(CCCCCCCCOC)c41)-c1c(CCCCCCCCOC)ccc(CCCCCCCCOC)c1-3)c1c(CCCCCCCCOC)ccc(CCCCCCCCOC)c21.[O]=[V+2] [Comparative Example Compound (b), reference compound]
[1]
  Transmittance (%) 460 nm: 97.8%
  Transmittance (%) 610 nm: 87.9%
[2]
  maximum absorption: 737.5 nm
[2]; at maximum absorption
  gram absorption coefficient: 105000 mL/g/cm
[3]
  Solubility to cyclopentanone (wt %): ≤1% wt %
